Assay results from ChEMBL document CHEMBL1155558, “New cyclic peptide and bisindolyl benzenoid metabolites from the sclerotia of Aspergillus sclerotiorum” (2000).

System: Spodoptera frugiperda
Assay: Activity against Spodoptera frugiperda assessed as reduction in feeding rate at 50 ug/cotton leaf disk
Format: functional
Design: scale not given: the % may be the effect or the level left

SMILES: CN1C(=O)[C@H](CCC(N)=O)NC(=O)CNC(=O)[C@H](Cc2ccccc2)N(C)C(=O)[C@H](Cc2ccccc2)NC(=O)CNC(=O)[C@@H]1Cc1ccccc1 [SCLERAMIDE]
- Activity: 27%
